Reference: BindingDB's records for patent US11752138 (Vanderbilt University, 2023)

Test: Inhibition of LDHB Activity
Experimental: This example describes a human LDHB biochemical assay employed in the characterization of a compound of Formula I in an embodiment of the dislcosure.Test compounds were placed in a Greiner Bio-One (Monroe, N.C.) 1536-well black solid bottom assay plate. 200 mM Tris HCl, pH 7.4, 100 μM EDTA and 0.01% TWEEN-20 , final concentration, was used as the assay buffer. The LDHB reagent was 2 nM Human LDHB (Meridian Life Science, Inc., Memphis, Tenn.), final concentration, in assay buffer. The substrate reagent was 0.13 mM NADH and 0.16 mM sodium pyruvate, final concentration, in assay buffer. The resazurin/diaphorase coupling reagent was 0.037 mM resazurin and 0.133 mg/mL diaphorase, final concentration, in assay buffer.

CC1CC=C(c2cc(-c3nn(-c4nc(C(=O)O)cs4)c(CC4CC4)c3Cc3ccc(S(N)(=O)=O)c(F)c3)ccc2F)CC1 (configuration not stated) [US11752138, Compound 101]
IC50: < 100 nM

CC1CCCC=C1c1cc(-c2nn(-c3nc(C(=O)O)cs3)c(CC3CC3)c2Cc2ccc(S(N)(=O)=O)c(F)c2)ccc1F (configuration not stated) [US11752138, Compound 103]
IC50: < 100 nM

COC1CC=C(c2cc(-c3nn(-c4nc(C(=O)O)cs4)c(CC4CC4)c3Cc3ccc(S(N)(=O)=O)c(F)c3)ccc2F)CC1 (configuration not stated) [US11752138, Compound 104]
IC50: < 100 nM

CC1(C)CC=C(c2cc(-c3nn(-c4nc(C(=O)O)cs4)c(CC4CC4)c3Cc3ccc(S(N)(=O)=O)c(F)c3)ccc2F)CC1 [US11752138, Compound 106]
IC50: < 100 nM

Cc1ncc(C#Cc2cc(-c3nn(-c4nc(C(=O)O)cs4)c(CC4CC4)c3Cc3ccc(S(N)(=O)=O)c(F)c3)ccc2F)s1 [US11752138, Compound 111]
IC50: < 100 nM

Cc1ccc(C#Cc2cccc(-c3nn(-c4nc(C(=O)O)cs4)c(CC4CC4)c3Cc3ccc(S(N)(=O)=O)c(F)c3)c2)s1 [US11752138, Compound 112]
IC50: < 100 nM

Cc1ccc(C#Cc2cc(-c3nn(-c4nc(C(=O)O)cs4)c(CCC4CC4)c3Cc3ccc(S(N)(=O)=O)c(F)c3)ccc2F)s1 [US11752138, Compound 113]
IC50: < 100 nM

Cc1cnc(C#Cc2cc(-c3nn(-c4nc(C(=O)O)cs4)c(CC4CC4)c3Cc3ccc(S(N)(=O)=O)c(F)c3)ccc2F)s1 [US11752138, Compound 114]
IC50: < 100 nM

Cc1ccc(C#Cc2cccc(-c3nn(-c4nc(C(=O)O)cs4)c(CCC4CC4)c3Cc3ccc(S(N)(=O)=O)c(F)c3)c2)s1 [US11752138, Compound 115]
IC50: < 100 nM

NS(=O)(=O)c1ccc(Cc2c(-c3cccc(C#Cc4ccc(Cl)s4)c3)nn(-c3nc(C(=O)O)cs3)c2CC2CC2)cc1F [US11752138, Compound 118]
IC50: < 100 nM

Cc1ccc(/C=C/c2cccc(-c3nn(-c4nc(C(=O)O)cs4)c(CC4CC4)c3Cc3ccc(S(N)(=O)=O)c(F)c3)c2)s1 [US11752138, Compound 119]
IC50: < 100 nM

Cc1ccsc1C#Cc1cccc(-c2nn(-c3nc(C(=O)O)cs3)c(CC3CC3)c2Cc2ccc(S(N)(=O)=O)c(F)c2)c1 [US11752138, Compound 120]
IC50: < 100 nM

NS(=O)(=O)c1ccc(Cc2c(-c3cccc(C#Cc4ccc(C(F)F)s4)c3)nn(-c3nc(C(=O)O)cs3)c2CC2CC2)cc1F [US11752138, Compound 121]
IC50: < 100 nM

Cc1cnc(C#Cc2cccc(-c3nn(-c4nc(C(=O)O)cs4)c(CC4CC4)c3Cc3ccc(S(N)(=O)=O)c(F)c3)c2)o1 [US11752138, Compound 122]
IC50: < 100 nM

Cc1ccc(C#Cc2cccc(-c3nn(-c4nc(C(=O)O)cs4)c(CC4(C)CC4)c3Cc3ccc(S(N)(=O)=O)c(F)c3)c2)s1 [US11752138, Compound 123]
IC50: < 100 nM

Cc1cc(C)c(C#Cc2cccc(-c3nn(-c4nc(C(=O)O)cs4)c(CC4CC4)c3Cc3ccc(S(N)(=O)=O)c(F)c3)c2)s1 [US11752138, Compound 125]
IC50: < 100 nM

Cc1ccc(C#Cc2cccc(-c3nn(-c4nc(C(=O)O)cs4)c(CC4CC4)c3Cc3ccc(S(N)(=O)=O)c(F)c3)c2)o1 [US11752138, Compound 129]
IC50: < 100 nM

Cc1ccc(C2CC2c2cccc(-c3nn(-c4nc(C(=O)O)cs4)c(CC4CC4)c3Cc3ccc(S(N)(=O)=O)c(F)c3)c2)s1 (configuration not stated) [US11752138, Compound 130]
IC50: < 100 nM

Cc1ccc(-c2cc(-c3nn(-c4nc(C(=O)O)cs4)c(CC4CC4)c3Cc3ccc(S(N)(=O)=O)c(F)c3)ccc2F)cc1F [US11752138, Compound 137]
IC50: < 100 nM

CC(=O)c1cc(-c2nn(-c3nc(C(=O)O)cs3)c(CC3CC3)c2Cc2ccc(S(N)(=O)=O)c(F)c2)ccc1F [US11752138, Compound 140]
IC50: < 100 nM

COc1ccc(-c2cc(-c3nn(-c4nc(C(=O)O)cs4)c(CC4CC4)c3Cc3ccc(S(N)(=O)=O)c(F)c3)ccc2F)cc1C [US11752138, Compound 150]
IC50: < 100 nM

NS(=O)(=O)c1ccc(Cc2c(-c3ccc(F)c(NC(=O)c4ccccc4)c3)nn(-c3nc(C(=O)O)cs3)c2CC2CC2)cc1F [US11752138, Compound 152]
IC50: < 100 nM

COc1cc(OC)cc(-c2cc(-c3nn(-c4nc(C(=O)O)cs4)c(CC4CC4)c3Cc3ccc(S(N)(=O)=O)c(F)c3)ccc2F)c1 [US11752138, Compound 153]
IC50: < 100 nM

NS(=O)(=O)c1ccc(Cc2c(-c3ccc(F)c(-c4cc(F)cc(F)c4)c3)nn(-c3nc(C(=O)O)cs3)c2CC2CC2)cc1F [US11752138, Compound 156]
IC50: < 100 nM

CC(C)N1CC2(CN(c3cc(-c4nn(-c5nc(C(=O)O)cs5)c(CC5CC5)c4Cc4ccc(S(N)(=O)=O)c(F)c4)ccc3F)C2)C1 [US11752138, Compound 158]
IC50: < 100 nM

NS(=O)(=O)c1ccc(Cc2c(-c3ccc(F)c(-c4ncc[nH]4)c3)nn(-c3nc(C(=O)O)cs3)c2CC2CC2)cc1F [US11752138, Compound 159]
IC50: < 100 nM

Cc1ncc(-c2cc(-c3nn(-c4nc(C(=O)O)cs4)c(CC4CC4)c3Cc3ccc(S(N)(=O)=O)c(F)c3)ccc2F)[nH]1 [US11752138, Compound 161]
IC50: < 100 nM

NS(=O)(=O)c1ccc(Cc2c(-c3cccc(-c4ccc(Cl)c(F)c4)c3)nn(-c3nc(C(=O)O)cs3)c2CC2CC2)cc1F [US11752138, Compound 164]
IC50: < 100 nM

COc1ccc(-c2cccc(-c3nn(-c4nc(C(=O)O)cs4)c(CC4CC4)c3Cc3ccc(S(N)(=O)=O)c(F)c3)c2)cc1C [US11752138, Compound 165]
IC50: < 100 nM

NS(=O)(=O)c1ccc(Cc2c(-c3cccc(-c4ccc(Cl)cc4)c3)nn(-c3nc(C(=O)O)cs3)c2CC2CC2)cc1F [US11752138, Compound 166]
IC50: < 100 nM

Cc1ccc(-c2cccc(-c3nn(-c4nc(C(=O)O)cs4)c(CC4CC4)c3Cc3ccc(S(N)(=O)=O)c(F)c3)c2)cc1F [US11752138, Compound 167]
IC50: < 100 nM

CC(C)c1ccc(-c2cccc(-c3nn(-c4nc(C(=O)O)cs4)c(CC4CC4)c3Cc3ccc(S(N)(=O)=O)c(F)c3)c2)cc1 [US11752138, Compound 169]
IC50: < 100 nM

CC(C)c1cccc(-c2cccc(-c3nn(-c4nc(C(=O)O)cs4)c(CC4CC4)c3Cc3ccc(S(N)(=O)=O)c(F)c3)c2)c1 [US11752138, Compound 173]
IC50: < 100 nM

NS(=O)(=O)c1ccc(Cc2c(-c3cccc(-c4cccc(Cl)c4)c3)nn(-c3nc(C(=O)O)cs3)c2CC2CC2)cc1F [US11752138, Compound 175]
IC50: < 100 nM

N#Cc1ccc(-c2cccc(-c3nn(-c4nc(C(=O)O)cs4)c(CC4CC4)c3Cc3ccc(S(N)(=O)=O)c(F)c3)c2)cc1 [US11752138, Compound 176]
IC50: < 100 nM

CN(C)c1ccc(-c2cccc(-c3nn(-c4nc(C(=O)O)cs4)c(CC4CC4)c3Cc3ccc(S(N)(=O)=O)c(F)c3)c2)cc1 [US11752138, Compound 178]
IC50: < 100 nM

Cc1ccc(C#Cc2cc(-c3nn(-c4nc(C(=O)O)cs4)c(CC4CC4)c3Cc3ccc(S(N)(=O)=O)c(F)c3)ccc2F)s1 [US11752138, Compound 249]
IC50: < 100 nM
